# According to BindingDB's records for doi:10.1016/j.bmcl.2009.04.147 (Banyu Pharmaceutical, 2009):
# Target: Melanin-concentrating hormone receptor 1 (Homo sapiens, UniProt Q99705)
# Assay: Radioligand Binding Assay (IC50) and Functional Assay (EC50/IC50)
# Conditions: pH 7.4; 22 °C
# Description: Compounds were evaluated for their binding affinity to the membranes of CHO-K1 cells expressing human MCH1R (hMCH1R) in a competition binding assay with [125I]-MCH as the radioligand. After incubation, the membranes were filtrated onto GF/C filter plates and dried. The radioactivity was counted using a microplate scintillation counter (TopCount, PerkinElmer). Non-specific binding was determined by including 1 uM unlabeled MCH in the binding reaction. Antagonistic activity (EC50/IC50) was estimated by the inhibitory effect of compounds on intracellular calcium mobilization induced by MCH using a FLIPR in CHO-K1 cells expressing human MCH1R. The cells were treated with the test compounds for 5 min before addition of MCH.
# Chain of Melanin-concentrating hormone receptor 1 (Q99705 as listed by the source): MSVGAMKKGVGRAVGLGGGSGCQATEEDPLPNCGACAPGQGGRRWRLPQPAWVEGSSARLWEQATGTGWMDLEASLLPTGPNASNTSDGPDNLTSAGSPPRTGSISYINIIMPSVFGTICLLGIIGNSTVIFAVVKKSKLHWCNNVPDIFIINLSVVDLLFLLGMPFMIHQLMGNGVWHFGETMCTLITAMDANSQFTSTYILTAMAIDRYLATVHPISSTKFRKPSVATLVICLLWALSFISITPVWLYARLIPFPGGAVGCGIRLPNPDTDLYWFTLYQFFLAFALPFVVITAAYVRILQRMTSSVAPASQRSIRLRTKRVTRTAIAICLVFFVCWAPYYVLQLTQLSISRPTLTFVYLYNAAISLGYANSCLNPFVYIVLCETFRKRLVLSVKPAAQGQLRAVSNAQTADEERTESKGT
row,IC50,Structure (SMILES)
1,21 nM,"CC(C)N(C)c1nc2ccc(NC(=O)CCc3ccc(C(F)(F)F)cc3)cc2[nH]1 [2-aminobenzimidazole-based compound, 8]"
2,27 nM,"CN(c1nc2ccc(NC(=O)CCc3ccc(C(F)(F)F)cc3)cc2[nH]1)C1CCCCC1 [2-aminobenzimidazole-based compound, 13]"
3,22 nM,"CN(c1nc2ccc(NC(=O)CCc3ccc(C(F)(F)F)cc3)cc2[nH]1)C1CCCC1 [2-aminobenzimidazole-based compound, 12]"
